From the supplement of paper PMC5908809

Experiments:
[1] = test system: normal NK cells expanded with K562-aAPC; assay: drug sensitivity score (DSS) (DSS units); higher = more sensitive; extreme values may be limits of the assay; settings: 72 h; IL-2 2.5 ng/mL
Description: (§1)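 Drug sensitivity and resistance testing on K562-aAPC-expanded normal NK cells: 5 concentrations (10-fold steps over a 10,000-fold range), 72 h at 37 °C, viability by CellTiter-Glo normalised to DMSO and benzethonium chloride controls; DSS from the fitted curve.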

DERL-7 (IL-2 2.5 ng/mL) [2] = assay: percent inhibition of viability; higher = more inhibition; settings: 72 h
[3] = test system: normal primary NK cells, pool 1 (3 donors), resting (IL-2 0 ng/mL); assay: as above; settings: 72 h
KHYG-1 (IL-2 2.5 ng/mL) [4] = assay: as above; settings: 72 h
[5] = test system: normal primary NK cells, pool 3 (3 donors) (IL-2 2.5 ng/mL); assay: as above; settings: 72 h
NKL (IL-2 2.5 ng/mL) [6] = assay: as above; settings: 72 h
SNK-6 (IL-2 2.5 ng/mL) [7] = assay: as above; settings: 72 h
NK-92 (IL-2 2.5 ng/mL) [8] = assay: as above; settings: 72 h
IMC-1 (IL-2 20 ng/mL) [9] = assay: as above; settings: 72 h
[10] = test system: normal primary NK cells, pool 2 (3 donors) (IL-2 2.5 ng/mL); assay: as above; settings: 72 h
NK-YS (IL-2 2.5 ng/mL) [11] = assay: as above; settings: 72 h
[12] = test system: normal primary NK cells, pool 1 (3 donors) (IL-2 2.5 ng/mL); assay: as above; settings: 72 h
YT (IL-2 2.5 ng/mL) [13] = assay: as above; settings: 72 h
KAI3 (IL-2 2.5 ng/mL) [14] = assay: as above; settings: 72 h
DERL-7 (IL-2 2.5 ng/mL) [15] = assay: drug sensitivity score (DSS) (DSS units); higher = more sensitive; extreme values may be limits of the assay; settings: 72 h
[16] = test system: normal primary NK cells, pool 1 (3 donors), resting (IL-2 0 ng/mL); assay: as above; settings: 72 h
KHYG-1 (IL-2 2.5 ng/mL) [17] = assay: as above; settings: 72 h
[18] = test system: normal primary NK cells, pool 3 (3 donors) (IL-2 2.5 ng/mL); assay: as above; settings: 72 h
NKL (IL-2 2.5 ng/mL) [19] = assay: as above; settings: 72 h
SNK-6 (IL-2 2.5 ng/mL) [20] = assay: as above; settings: 72 h
NK-92 (IL-2 2.5 ng/mL) [21] = assay: as above; settings: 72 h
IMC-1 (IL-2 20 ng/mL) [22] = assay: as above; settings: 72 h
[23] = test system: normal primary NK cells, pool 2 (3 donors) (IL-2 2.5 ng/mL); assay: as above; settings: 72 h
NK-YS (IL-2 2.5 ng/mL) [24] = assay: as above; settings: 72 h
[25] = test system: normal primary NK cells, pool 1 (3 donors) (IL-2 2.5 ng/mL); assay: as above; settings: 72 h
YT (IL-2 2.5 ng/mL) [26] = assay: as above; settings: 72 h
KAI3 (IL-2 2.5 ng/mL) [27] = assay: as above; settings: 72 h
[28] = test system: normal NK cells expanded with K562-aAPC; assay: percent inhibition of viability; higher = more inhibition; settings: 72 h, IL-2 2.5 ng/mL
Description: as §1

Clc1ccccc1C(c1ccccc1)(c1ccccc1)n1cccn1 [TRAM-34] (max concentration tested 1000 nM)
Settings | drug sensitivity score
DERL-7 (IL-2 2.5 ng/mL) [15] | 0
IMC-1 (IL-2 20 ng/mL) [22] | 0
KAI3 (IL-2 2.5 ng/mL) [27] | 0
KHYG-1 (IL-2 2.5 ng/mL) [17] | 0
NK-92 (IL-2 2.5 ng/mL) [21] | 0
NK-YS (IL-2 2.5 ng/mL) [24] | 0
NKL (IL-2 2.5 ng/mL) [19] | 0
SNK-6 (IL-2 2.5 ng/mL) [20] | 0
YT (IL-2 2.5 ng/mL) [26] | 0
[1] | 0.49
[16] | 0
[18] | 0
[23] | 0
[25] | 0

percent inhibition of viability [%]
Settings | 0.1 nM | 1 nM | 10 nM | 100 nM | 1000 nM
DERL-7 (IL-2 2.5 ng/mL) [2] | 2.4 | -1.24 | 1.99 | -0.74 | 3.63
IMC-1 (IL-2 20 ng/mL) [9] | -7.73 | 1.38 | 0.84 | 6.67 | 8.82
KAI3 (IL-2 2.5 ng/mL) [14] | -2.69 | 4.59 | -1.47 | 2.61 | 4.51
KHYG-1 (IL-2 2.5 ng/mL) [4] | -1.11 | 0.96 | -3.26 | 0.95 | -0.5
NK-92 (IL-2 2.5 ng/mL) [8] | -8.56 | -5.28 | -2.17 | -14.1 | 11.6
NK-YS (IL-2 2.5 ng/mL) [11] | 1.9 | 0.93 | 2.82 | 2.55 | 8.67
NKL (IL-2 2.5 ng/mL) [6] | -1.68 | -6.27 | 6.64 | 4.13 | 5.01
SNK-6 (IL-2 2.5 ng/mL) [7] | 5.28 | 12.6 | 2.07 | 24 | 3.1
YT (IL-2 2.5 ng/mL) [13] | -3.41 | -5.82 | -7.53 | -11.9 | 12.2
[3] | -5.83 | -36.5 | -10.7 | -18.8 | -3.17
[5] | -3.16 | -4.73 | 5.06 | -3.53 | 6.24
[10] | -11.6 | -1.76 | 12.1 | -4.19 | 0.97
[12] | 3.23 | -13.1 | 1.01 | -11 | -5.83
[28] | -6.55 | 1.68 | -0.18 | 9.02 | 12.7
